How the values were obtained:
horses [1] = test: Trial of methoxyflurane administered to horses at the end of anaesthesia to modify recovery; type: in vivo, horse; set-up: 1st Movt / Stern. / Stnd / Atax / Walk out: unit not given here
Method: Trial of methoxyflurane administered to horses at the end of anaesthesia, attempting to modify recovery:
[…] Horses recovering from isoflurane typically attempt to stand in 10 to 15 minutes, usually fall down and try to get back up 2 or 3 times (sometimes violent, resulting in injuries from skin abrasions to fractured limbs) and are then standing 15 to 20 minutes after anaesthetic administration ceased. […] Halothane recoveries are less violent and result in less likelihood of injury.
Initially trials were also performed in anattempt to determine the dose and duration of MOF administration that would result in improved quality of recovery.
The last 8 horses were administered with ever lower doses of MOF for less time with better results (see table below). […] The lowest dose produced a good result.

horses [2] = settings: typical; cited from earlier work
[3] = horse 472 kgs, 130 Mins. ISO anaesthesia, Methoxy volume not given
[4] = horse 338 kgs, 30 Mins. HAL anaesthesia, Methoxy volume not given
[5] = horse 492 kgs, 90 Mins. HAL anaesthesia, Methoxy volume not given
[6] = horse 332 kgs, 135 Mins. ISO anaesthesia, Methoxy total 200 ml
[7] = horse 462 kgs, 135 Mins. ISO anaesthesia, Methoxy total 350 ml
[8] = horse 470 kgs, 85 Mins. ISO anaesthesia, Methoxy total 210 ml
[9] = horse 492 kgs, 75 Mins. ISO anaesthesia, Methoxy total 540 ml
[10] = horse 580 kgs, 16O Mins. ISO anaesthesia, Methoxy total 300 ml

In the case of `FC(F)OC(Cl)C(F)(F)F` (centres unmarked) [ISO, isoflurane], the “1st Movt” value (horses [1]; [3]) is reported as 23, the Atax (horses [1]; [3]) is reported as 78 and the Comments (horses [1]; [3]) is reported as “Try stand at 23”. It also gave a Stern. (horses [1]; [3]) of 32, a Stnd (horses [1]; [3]) of 63 and a Walk out (horses [1]; [3]) of 100.

In the case of `FC(F)(F)C(Cl)Br` (centres unmarked) [HAL, halothane], the “1st Movt” value (horses [1]; [4]) is reported as 27, the Atax (horses [1]; [4]) is reported as “Fell” and the Comments (horses [1]; [4]) is reported as “Stood/fell x 3”. It also gave a Stern. (horses [1]; [4]) of 30, a Stnd (horses [1]; [4]) of 31 and a Walk out (horses [1]; [4]) of 55. For the same molecule, the “1st Movt” value (horses [1]; [5]) was 30, the Atax (horses [1]; [5]) was 75 and the Comments (horses [1]; [5]) was “Poor - flip over”. The Stern. (horses [1]; [5]) was 50(2), the Stnd (horses [1]; [5]) was 65 and the Walk out (horses [1]; [5]) was 85. The “recovery duration in comparison with isoflurane” value (horses [2]) was “twice as long as isoflurane”.

For `COC(F)(F)C(Cl)Cl` [Methoxy, methoxyflurane], the “1st Movt” value (horses [1]; [6]) was 17, the Atax (horses [1]; [6]) was 30 and the Comments (horses [1]; [6]) was “Good”. The Stern. (horses [1]; [6]) was 25, the Stnd (horses [1]; [6]) was 26 and the Walk out (horses [1]; [6]) was 41. The “1st Movt” value (horses [1]; [7]) was 48, the Atax (horses [1]; [7]) was 59 and the Comments (horses [1]; [7]) was “Still 45 mm then”. The Stnd (horses [1]; [7]) was 49, the Walk out (horses [1]; [7]) was 75 and the “1st Movt” value (horses [1]; [8]) was 5. The Atax (horses [1]; [8]) was 35, the Comments (horses [1]; [8]) was 10x wobble then and the Stern. (horses [1]; [8]) was 14. The Stnd (horses [1]; [8]) was 29, the Walk out (horses [1]; [8]) was 55 and the “1st Movt” value (horses [1]; [9]) was 50. For the same molecule, the Atax (horses [1]; [9]) was 85, the Comments (horses [1]; [9]) was “Stood 69- fell” and the Stern. (horses [1]; [9]) was 60. The Stnd (horses [1]; [9]) was 75, the Walk out (horses [1]; [9]) was 100 and the “1st Movt” value (horses [1]; [10]) was 37. The Atax (horses [1]; [10]) was 85, the Stern. (horses [1]; [10]) was 60 and the Stnd (horses [1]; [10]) was 61. The Walk out (horses [1]; [10]) was 90, the quality of recovery (horses [1]; initial trials (higher dose, longer administration), horses after isoflurane anaesthesia) was “long recoveries with marked ataxia” and the quality of recovery (horses [1]; last 8 horses, ever lower doses for less time) was “less ataxia and a better quality recovery”. The quality of recovery (horses [1]; lowest dose, last horse) was “good result”.

Reference: patent US20170112784A1, “Method and Medicament for Pain Management” (priority 2007, published 2017)
